Results as given in ChEMBL document CHEMBL1150716, “Cytotoxic flavonols from Gutierrezia microcephala” (1987).
Converted amounts (≈) assume the structure as drawn.

Test system: P388
Test: Cytotoxicity against mouse P388 cells
Type: functional
Conditions: read-out: ED50 (the source's name)

Structure (SMILES) | EC50 [µg/mL]
COc1cc(O)c2c(=O)c(OC)c(-c3ccc(O)c(O)c3)oc2c1 | 3.2 (≈ 9.69 µM)
COc1cc(-c2oc3cc(O)cc(O)c3c(=O)c2OC)ccc1O [3,3'-O-DIMETHYLQUERCETIN] | 1.7 (≈ 5.15 µM)
